Read-outs that look alike come from different tables or passages of the source.
Key:
chorioallantoic membrane [1] = assay: Chorioallantoic membrane (CAM) angiogenesis assay; format: in vivo, chicken; conditions: 1 µM in 0.5% DMSO, EDD7 to EDD10, up to 72 h post-treatment
Protocol: CAM test also allows the assessment of a drug’s activity on tumor proliferation and distant metastasis, as well as drug toxicity. […] No anomalies were noticed in the angiogenic process after treatment with 0.5% DMSO in distilled water used as control.
The basic CAM assay protocol makes use of fertilized chicken eggs, incubated at 37 °C, under controlled humidity. On the third day of incubation (embryonic day of development, EDD), a small opening was made at one end of the eggs and 5–6 mL of albumen were removed, thus facilitating the separation of the chorioallantoic membrane. On EDD 4, a window was cut on the upper side of the egg and subsequently resealed, returning the specimens to the incubator. On EDD 7 (0 h), 10 µL of each test solution were administered inside a plastic ring previously applied on the intensely vascularized surface of the CAM [93]. All compounds were tested at a concentration of 1 µM in DMSO 0.5%, which also represented the control sample. All samples were daily applied in the same volume, for 72 h. For each analyzed sample, 5 eggs were used, and all samples were applied in triplicate. Macroscopic evaluation was daily performed in ovo by means of stereomicroscopy (ZEISS SteREO Discovery.V8, Göttingen, Germany), and all images were registered and processed by Axiocam 105 color, AxioVision SE64. Rel. 4.9.1 Software, (ZEISS Göttingen, Germany), ImageJ (ImageJ Version 1.50e, https://imagej.nih.gov/ij/index.html, accessed on 3 June 2021) and GIMP software (GIMP v 2.8, https://www.gimp.org/, accessed on 3 June 2021).

SF-539 = assay: NCI-60 screening (SRB); format: cell-based, human; conditions: for GI50 / CC50: Homo sapiens; for GI50 / CC50 / TGI: SF-539, five-dose; for CC50: read-out: LC50 (the source's name)
SN12C = assay: NCI-60 screening (SRB); format: cell-based, human; conditions: five-dose; for GI50 / CC50: Homo sapiens; for CC50: read-out: LC50 (the source's name)
K-562 = assay: NCI-60 screening (SRB); format: cell-based, human; conditions: for GI50 / CC50: Homo sapiens, K562, five-dose; for CC50: read-out: LC50 (the source's name); for TGI: five-dose
SK-MEL-2 = assay: NCI-60 screening (SRB); format: cell-based, human; conditions: five-dose; for GI50 / CC50: Homo sapiens; for CC50: read-out: LC50 (the source's name)
A375 cells = assay: Cell morphology and confluence; format: cell-based, human; conditions: 24 h
Protocol: A morphological examination of the tested cells was conducted in order to provide additional data for the investigated compounds in terms of their biological activity.

M14 = assay: NCI-60 screening (SRB); format: cell-based, human; conditions: five-dose
CNS cancer = assay: cells; format: cell-based; conditions: for TGI MG_MID / GI50 / CC50: CNS cancer subpanel, five-dose; for SI (TGI): CNS cancer, MG_MID60/subpanel MG_MID; for GI50 / CC50: Homo sapiens; for GI50: read-out: GI50 MG_MID; for CC50: read-out: LC50 MG_MID
Text: (§1) The experimental data allow the assessment of the cytostatic effect, indicated by growth inhibition values ranging between 0 and 100, as well as of the cytotoxic effect, indicated by negative values.
(§2) The mean GI50 (molar concentration of the compound that inhibits 50% net cell growth), TGI (molar concentration of the compound leading to the total inhibition), and LC50 (molar concentration of the compound leading to 50% net cell death (presented in negative logarithm)) values across each cell line are shown in Table 2.
(§3) The selectivity index (SI), calculated as the ratio between the full panel MG_MID60 (μM) of compounds 4, 6, and 9 by their respective subpanels MG_MID of the cell line (μM), was introduced as a quantification tool for the selectivity of each compound in terms of anticancer effect (Table 3).
(§4) Primary anticancer assays were performed according to the NCI protocol, as described elsewhere (see e.g., http://dtp.nci.nih.gov accessed on 1 November 2018). The compounds were added at a single concentration, and the cell cultures were incubated for 48 h. The end point determinations were made with a protein-binding dye, sulforhodamine B (SRB). […] The percentage of growth was evaluated spectrophotometrically versus controls not treated with test agents after 48 h exposure and using SRB protein assay to estimate cell viability or growth. Three antitumor activity dose-response parameters were calculated for each cell line. Furthermore, mean graph midpoints (MG_MID) were calculated for each of the parameters, giving an average activity parameter over all cell lines for the tested compound. For the MG_MID calculation, insensitive cell lines were included with the highest concentration tested.

HOP-92 = assay: NCI-60 screening (SRB); format: cell-based, human; conditions: five-dose; for GI50 / CC50: Homo sapiens; for CC50: read-out: LC50 (the source's name)
NCI-H23 = assay: NCI-60 screening (SRB); format: cell-based, human; conditions: five-dose; for GI50 / CC50: Homo sapiens; for CC50: read-out: LC50 (the source's name)
[2] = system: NCI-60 cancer cell line panel; assay: NCI-60 screening (SRB), full panel; format: cell-based, human; conditions: for Positive Cytostatic Effect (cell lines with percent growth 0 to 50 / total) / Positive Cytotoxic Effect (cell lines with percent growth <0 / total) / activity at 10 µM: 1 dose 10 µM; for GI50 / CC50 / activity at 10 µM: Homo sapiens; for GI50 / CC50 / TGI MG_MID60: five-dose; for CC50: read-out: LC50 MG_MID60; for activity at 10 µM: 60 cell lines, 48 h
Text: as §1, §2, §3, §4

HT29 = assay: NCI-60 screening (SRB); format: cell-based, human; conditions: for GI50 / CC50: Homo sapiens, HT-29, five-dose; for CC50: read-out: LC50 (the source's name); for TGI: five-dose
SF-268 = assay: NCI-60 screening (SRB); format: cell-based, human; conditions: five-dose; for GI50 / CC50: Homo sapiens; for CC50: read-out: LC50 (the source's name)
SNB-75 = assay: NCI-60 screening (SRB); format: cell-based, human; conditions: five-dose; for GI50 / CC50: Homo sapiens; for CC50: read-out: LC50 (the source's name)
chorioallantoic membrane [3] = assay: HET-CAM irritation assay
Text: In this assay, the irritation potential may range from 0 to 21, with 0 being non-irritant and 21 being the most irritant. […] The irritation score was established according to Luepke scale: 0–0.9 indicates non-irritant, 1–4.9 indicates weakly irritant, 5–8.9 indicates moderately irritant, while 9–21 means strongly irritant (Table 6) [88, 89].
The in vivo Hen’s Egg Chorioallantoic Membrane Test (HET-CAM) assay determines a potential irritant effect on the vascular plexus of the chorioallantoic membrane [94]. The HET-CAM method was carried out following ICCVAM recommendations published in November 2016 in Appendix G and adapted to our conditions [88, 95, 96]. Thus, a volume of 300 µL of control or test solution was applied and the modifications produced at the CAM level were monitored by means of stereomicroscopy (Discovery 8 Stereomicroscope, Zeiss), registering significant images (Axio CAM 105 color, Zeiss), before application after 5 min of contact with the samples. All images were processed using Zeiss ZEN software, Gimp 2.8, and ImageJ software.
Negative control was represented by distilled water and solvent control DMSO 0.5%, and positive control by sodium lauryl sulphate (SLS) 0.5% in distillate water. The test substances were tested in concentrations of 1 µM.
Finally, the following reactions were: hemorrhage—H (blood vessel bleeding), vascular lysis—L (disintegration of blood vessels), coagulation—C (intra- or extra-vascular protein denaturizing). A variety of analysis methods may be used to assess irritancy potential of test substances. One analysis method that has been used extensively is an irritation score (IS). The formula used to generate an IS value is:(1) IS=5×301−Sec H/300+7×300−Sec L/300+9×301−Sec C/300 where: H = hemorrhage; L = vessel lysis; C = coagulation; hemorrhage time (Sec H) = onset of hemorrhage reactions on CAM (in seconds); lysis time (Sec L) = onset of vessel lysis on CAM (in seconds); coagulation time (Sec C) = onset of coagulation formation on CAM (in seconds). Means values are obtained. […] The IS values range on a scale between 0 and 21.

HCC-2998 = assay: NCI-60 screening (SRB); format: cell-based, human; conditions: five-dose; for GI50 / CC50: Homo sapiens; for CC50: read-out: LC50 (the source's name)
[4] = bound, read-out: GI50 against all human tumor cells
[5] = mean graph midpoint, full panel, read-out: GI50 MG_MID60
[6] = mean graph midpoint, full panel

In the case of CCN1CCN(C(=O)[C@]23CC[C@@H](C)[C@H](C)[C@H]2C2=CC[C@@H]4[C@@]5(C)CCC(=O)C(C)(C)[C@@H]5CC[C@@]4(C)[C@]2(C)CC3)CC1 [Compound 4, N-(3-oxo-ursan-12-en-28-oyl)-ethylpiperazine], the “effect on angiogenesis (CAM)” value (chorioallantoic membrane [1]) is reported as “no alterations were noticed in terms of angiogenesis”, the GI50 (SF-539) is reported as 843 nM and the CC50 (SF-539) is reported as 2800 nM. It also gave a TGI (SF-539) of 1540 nM, a Growth % (SF-539; SF-539 CNS cancer, 1 dose 10 µM) of −97.21% and a GI50 (SN12C) of 776 nM. The CC50 (SN12C) was 2810 nM, the TGI (SN12C) was 1480 nM and the GI50 (K-562) was 980 nM. It also gave a CC50 (K-562) of 4840 nM, a TGI (K-562) of 2180 nM and a GI50 (SK-MEL-2) of 1290 nM. For the same compound, the CC50 (SK-MEL-2) was 16200 nM, the TGI (SK-MEL-2) was 3330 nM and the “cell morphology and confluence” value (A375 cells; 0.1 μM) was “caused cell death”. For the same compound, the “cell morphology and confluence” value (A375 cells; 1 and 5 μM) was “visible loss of cell confluence”, the GI50 (M14; Homo sapiens) was 794 nM and the CC50 (M14; Homo sapiens, read-out: LC50 (the source's name)) was 3280 nM. For the same compound, the TGI (M14) was 1610 nM, the “TGI MG_MID” value (CNS cancer) was 2840 nM and the “SI (TGI)” value (CNS cancer) was 0.96. It also gave a GI50 (CNS cancer) of 1030 nM, a CC50 (CNS cancer) of 8690 nM and a GI50 (HOP-92) of 713 nM. For the same compound, the CC50 (HOP-92) was 8220 nM, the TGI (HOP-92) was 2060 nM and the GI50 (NCI-H23) was 1080 nM. The CC50 (NCI-H23) was 11600 nM, the TGI (NCI-H23) was 2900 nM and the “Positive Cytostatic Effect (cell lines with percent growth 0 to 50 / total)” value [2] was 60/60. For the same compound, the “Positive Cytotoxic Effect (cell lines with percent growth <0 / total)” value [2] was 60/60, the GI50 [2, 4] was less than 2000 nM and the GI50 ([2]; read-out: GI50 against the most sensitive cell lines) was 700 to 990 nM. It also gave a GI50 [2, 5] of 1030 nM, a CC50 [2, 6] of 12300 nM and an activity at 10 µM ([2]; read-out: Mean Growth, %) of -10.5%. The activity at 10 µM ([2]; read-out: Range of Growth, %) was -85.7 to -41.5%, the selectivity class ([2]; all GI50, TGI, and LC50 levels) was “nonselective (ratios below 3 indicate nonselective compounds)” and the “TGI MG_MID60” value [2, 6] was 2740 nM. It also gave a GI50 (HT29) of 913 nM, a CC50 (HT29) of 4590 nM and a TGI (HT29) of 2050 nM. The GI50 (SF-268) was 1770 nM, the CC50 (SF-268) was 24600 nM and the TGI (SF-268) was 6490 nM. For the same compound, the GI50 (SNB-75) was 1030 nM, the CC50 (SNB-75) was 17200 nM and the TGI (SNB-75) was 3820 nM. For the same compound, the “Irritation Score” value (chorioallantoic membrane [3]; 300 µL, 5 min, test compounds 1 µM, scale 0 to 21) was 0, the “Type of Effect” value (chorioallantoic membrane [3]; Luepke scale) was “Non-irritant” and the GI50 (HCC-2998) was 922 nM. The CC50 (HCC-2998) was 3600 nM and the TGI (HCC-2998) was 1820 nM.

Work on CCN1CCN(C(=O)[C@]23CC[C@@H](C)[C@H](C)[C@H]2C2=CC[C@@H]4[C@@]5(C)C/C(=C/c6cccnc6)C(=O)C(C)(C)[C@@H]5CC[C@@]4(C)[C@]2(C)CC3)CC1 [Compound 9, N-(2-{3-Pyridinylidene}-3-oxoursan-12-en-28-oyl)-ethylpiperazine] yielded a GI50 (SF-539) of 1660 nM, a CC50 (SF-539) of 5580 nM and a TGI (SF-539) of 3050 nM. It also gave a GI50 (SN12C) of 1610 nM, a CC50 (SN12C) of 5660 nM and a TGI (SN12C) of 3010 nM. For the same compound, the GI50 (K-562) was 2080 nM, the CC50 (K-562) was greater than 100000 nM and the TGI (K-562) was 5000 nM. For the same compound, the GI50 (SK-MEL-2) was 2120 nM, the CC50 (SK-MEL-2) was 65500 nM and the TGI (SK-MEL-2) was 4760 nM. The “TGI MG_MID” value (CNS cancer) was 4410 nM, the “SI (TGI)” value (CNS cancer) was 1.20 and the GI50 (CNS cancer) was 1710 nM. For the same compound, the CC50 (CNS cancer) was 13600 nM, the GI50 (HOP-92) was 1570 nM and the CC50 (HOP-92) was 38800 nM. The TGI (HOP-92) was 5730 nM, the GI50 (NCI-H23) was 2130 nM and the CC50 (NCI-H23) was 31800 nM. For the same compound, the TGI (NCI-H23) was 5910 nM, the “Positive Cytostatic Effect (cell lines with percent growth 0 to 50 / total)” value [2] was 33/59 and the “Positive Cytotoxic Effect (cell lines with percent growth <0 / total)” value [2] was 5/59. The GI50 [2, 4] was less than 4000 nM, the GI50 [2, 5] was 1930 nM and the CC50 [2, 6] was 38000 nM. For the same compound, the activity at 10 µM ([2]; read-out: Mean Growth, %) was 25.3%, the activity at 10 µM ([2]; read-out: Range of Growth, %) was -38.2 to 65.7% and the “TGI MG_MID60” value [2, 6] was 5290 nM. The selectivity class ([2]; toward some individual cell lines at the LC50 level) was “moderate selectivity (Ratios between 3 and 6 are indicators of moderate selectivity)”, the GI50 (HT29) was 1930 nM and the CC50 (HT29) was greater than 100000 nM. It also gave a TGI (HT29) of 5360 nM, a GI50 (SF-268) of 1770 nM and a CC50 (SF-268) of 9150 nM. For the same compound, the TGI (SF-268) was 4020 nM, the GI50 (SNB-75) was 1570 nM and the CC50 (SNB-75) was 39900 nM. The TGI (SNB-75) was 8910 nM, the GI50 (HCC-2998) was 1550 nM and the CC50 (HCC-2998) was 5790 nM. For the same compound, the TGI (HCC-2998) was 3000 nM.

— PMC8536124 (International Journal of Molecular Sciences, 2021)
